The supplement of paper PMC5662764
± gives the standard deviation of the averaged measurements.

What was measured:
Assay in all cases: normalised growth rate inhibition (GR value) relative to DMSO control (GR (1 = untreated growth, 0 = cytostasis, <0 = cytotoxic)); higher = less growth inhibition
Details in all cases: 72 h
MCF7 = tested on: MCF7
Protocol: (§1)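 Breast cancer cell lines (BT-20, Hs 578T, MCF 10A, MCF7, MDA-MB-231, SK-BR-3) were plated in 384-well plates and treated 24 h later with drugs at six concentrations (0.04-10 µM). Viable cells were counted by Hoechst/dead-cell-stain imaging at 0 and 72 h. Counts were normalised to DMSO controls on the same plate to give the relative cell count and the growth-rate inhibition (GR) value; technical plate triplicates were averaged for each biological replicate.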

BT20 = tested on: BT20
Protocol: as §1

HS578T = tested on: HS578T
Protocol: as §1

MDAMB231 = tested on: MDAMB231
Protocol: as §1

MCF10A = tested on: MCF10A
Protocol: as §1

SKBR3 = tested on: SKBR3
Protocol: as §1

Structure (SMILES)	normalised growth rate inhibition (MCF7; 0.04 µM)	normalised growth rate inhibition (MCF7; 0.12 µM)	normalised growth rate inhibition (MCF7; 0.37 µM)	normalised growth rate inhibition (MCF7; 1.11 µM)	normalised growth rate inhibition (MCF7; 3.33 µM)	normalised growth rate inhibition (MCF7; 10 µM)	normalised growth rate inhibition (BT20; 0.04 µM)	normalised growth rate inhibition (BT20; 0.12 µM)	normalised growth rate inhibition (BT20; 0.37 µM)	normalised growth rate inhibition (BT20; 1.11 µM)	normalised growth rate inhibition (BT20; 3.33 µM)	normalised growth rate inhibition (BT20; 10 µM)	normalised growth rate inhibition (HS578T; 0.04 µM)	normalised growth rate inhibition (HS578T; 0.12 µM)	normalised growth rate inhibition (HS578T; 0.37 µM)	normalised growth rate inhibition (HS578T; 1.11 µM)	normalised growth rate inhibition (HS578T; 3.33 µM)	normalised growth rate inhibition (HS578T; 10 µM)	normalised growth rate inhibition (MDAMB231; 0.04 µM)	normalised growth rate inhibition (MDAMB231; 0.12 µM)	normalised growth rate inhibition (MDAMB231; 0.37 µM)	normalised growth rate inhibition (MDAMB231; 1.11 µM)	normalised growth rate inhibition (MDAMB231; 3.33 µM)	normalised growth rate inhibition (MDAMB231; 10 µM)	normalised growth rate inhibition (MCF10A; 0.04 µM)	normalised growth rate inhibition (MCF10A; 0.12 µM)	normalised growth rate inhibition (MCF10A; 0.37 µM)	normalised growth rate inhibition (MCF10A; 1.11 µM)	normalised growth rate inhibition (MCF10A; 3.33 µM)	normalised growth rate inhibition (MCF10A; 10 µM)	normalised growth rate inhibition (SKBR3; 0.04 µM)	normalised growth rate inhibition (SKBR3; 0.12 µM)	normalised growth rate inhibition (SKBR3; 0.37 µM)	normalised growth rate inhibition (SKBR3; 1.11 µM)	normalised growth rate inhibition (SKBR3; 3.33 µM)	normalised growth rate inhibition (SKBR3; 10 µM)
CN1CC[C@H](c2c(O)cc(O)c3c(=O)cc(-c4ccccc4Cl)oc23)[C@H](O)C1 [alvocidib]	-0.0866 ± 0.19	-0.328 ± 0.037	-0.335 ± 0.068	-0.359 ± 0.057	-0.361 ± 0.077	-0.364 ± 0.07	0.324 ± 0.32	-0.0878 ± 0.2	-0.251 ± 0.083	-0.35 ± 0.19	-0.339 ± 0.2	-0.365 ± 0.21	0.48 ± 0.23	-0.156 ± 0.1	-0.206 ± 0.082	-0.196 ± 0.11	-0.193 ± 0.098	-0.188 ± 0.11	0.184 ± 0.25	-0.239 ± 0.12	-0.273 ± 0.13	-0.273 ± 0.16	-0.282 ± 0.14	-0.287 ± 0.16	0.197 ± 0.27	-0.2 ± 0.16	-0.288 ± 0.23	-0.281 ± 0.24	-0.281 ± 0.25	-0.263 ± 0.22	0.102 ± 0.038	-0.287 ± 0.2	-0.32 ± 0.26	-0.367 ± 0.21	-0.357 ± 0.22	-0.391 ± 0.21
CC(=O)Nc1nc(C)c(-c2ccc(Cl)c(S(=O)(=O)NCCO)c2)s1	1.08 ± 0.094	1.03 ± 0.14	0.994 ± 0.22	0.88 ± 0.28	0.441 ± 0.11	0.0722 ± 0.078	1.024 ± 0.0077	1.02 ± 0.03	1.05 ± 0.034	0.973 ± 0.068	0.746 ± 0.033	0.0954 ± 0.044	1.013 ± 0.0069	1.01 ± 0.02	0.99 ± 0.056	0.929 ± 0.093	0.585 ± 0.16	0.162 ± 0.19	1.01 ± 0.055	1.01 ± 0.061	0.999 ± 0.1	0.919 ± 0.061	0.78 ± 0.036	0.272 ± 0.021	0.9973 ± 0.0055	0.995 ± 0.02	0.993 ± 0.029	0.959 ± 0.026	0.831 ± 0.094	0.502 ± 0.077	1.09 ± 0.03	1.09 ± 0.045	1.01 ± 0.094	0.916 ± 0.12	0.597 ± 0.037	0.00524 ± 0.12
COc1cc2c(Oc3ccc(NC(=O)C4(C(=O)Nc5ccc(F)cc5)CC4)cc3F)ccnc2cc1OCCCN1CCOCC1 [foretinib]	1.01 ± 0.025	0.495 ± 0.2	0.134 ± 0.019	0.0492 ± 0.039	0.00497 ± 0.016	-0.225 ± 0.025	1.02 ± 0.046	0.799 ± 0.15	0.236 ± 0.22	-0.00958 ± 0.12	-0.0192 ± 0.12	-0.124 ± 0.12	0.936 ± 0.045	0.845 ± 0.011	0.381 ± 0.15	0.256 ± 0.14	0.178 ± 0.14	-0.223 ± 0.12	0.91 ± 0.037	0.615 ± 0.012	0.168 ± 0.12	0.113 ± 0.12	0.0741 ± 0.17	-0.211 ± 0.056	1.03 ± 0.031	0.992 ± 0.028	0.902 ± 0.034	0.429 ± 0.1	0.154 ± 0.043	-0.0329 ± 0.028	1.07 ± 0.037	0.812 ± 0.26	0.0769 ± 0.069	-0.0562 ± 0.079	-0.034 ± 0.083	-0.0967 ± 0.11
C=CC(=O)N1CCc2ccc(-n3c(=O)ccc4cnc5ccc(-c6cnn(C)c6)cc5c43)cc21 [QL-XII-47]	0.57 ± 0.16	0.35 ± 0.25	0.0387 ± 0.084	-0.0941 ± 0.045	-0.109 ± 0.017	-0.188 ± 0.12	0.669 ± 0.29	0.618 ± 0.31	0.351 ± 0.28	0.0671 ± 0.23	-0.135 ± 0.077	-0.259 ± 0.091	0.895 ± 0.091	0.854 ± 0.11	0.713 ± 0.15	0.438 ± 0.24	0.153 ± 0.14	-0.127 ± 0.12	0.659 ± 0.12	0.541 ± 0.14	0.337 ± 0.15	0.109 ± 0.14	-0.0169 ± 0.082	-0.128 ± 0.12	0.969 ± 0.021	0.953 ± 0.024	0.867 ± 0.11	0.683 ± 0.26	0.428 ± 0.32	-0.127 ± 0.14	0.516 ± 0.042	0.35 ± 0.12	0.0964 ± 0.17	-0.108 ± 0.14	-0.26 ± 0.18	-0.3 ± 0.16
N#CC(c1ccnc(NCCc2cccnc2)n1)c1nc2ccccc2s1 (configuration not stated)	0.812 ± 0.044	0.877 ± 0.091	0.923 ± 0.12	0.883 ± 0.076	0.945 ± 0.085	0.659 ± 0.071	0.879 ± 0.031	0.922 ± 0.034	0.999 ± 0.044	1.03 ± 0.05	1.05 ± 0.035	1 ± 0.11	0.988 ± 0.016	1.01 ± 0.022	1.023 ± 0.0087	1.025 ± 0.0078	1.03 ± 0.023	0.932 ± 0.06	0.906 ± 0.026	0.905 ± 0.023	0.92 ± 0.023	0.94 ± 0.066	0.95 ± 0.096	0.726 ± 0.076	0.993 ± 0.015	0.986 ± 0.011	0.982 ± 0.011	0.987 ± 0.012	0.987 ± 0.016	0.707 ± 0.14	0.669 ± 0.056	0.809 ± 0.11	0.876 ± 0.081	0.84 ± 0.098	0.749 ± 0.13	0.383 ± 0.056
C=CC(=O)Nc1cc2c(Nc3ccc(F)c(Cl)c3)ncnc2cc1OCCCN1CCOCC1 [canertinib]	0.9894 ± 0.0058	0.884 ± 0.035	0.801 ± 0.053	0.67 ± 0.062	0.505 ± 0.13	-0.367 ± 0.092	0.896 ± 0.044	0.8804 ± 0.0073	0.831 ± 0.027	0.814 ± 0.045	0.71 ± 0.061	-0.13 ± 0.097	1 ± 0.028	0.996 ± 0.028	0.969 ± 0.019	0.944 ± 0.011	0.851 ± 0.034	-0.289 ± 0.13	1.04 ± 0.029	0.965 ± 0.015	0.909 ± 0.026	0.782 ± 0.034	0.572 ± 0.099	-0.249 ± 0.077	0.702 ± 0.24	0.498 ± 0.26	0.313 ± 0.2	0.173 ± 0.1	0.105 ± 0.033	-0.39 ± 0.22	0.148 ± 0.089	0.023 ± 0.12	-0.0304 ± 0.15	-0.0844 ± 0.15	-0.124 ± 0.14	-0.261 ± 0.12
Cc1nc(NC(=O)N2CCC[C@H]2C(N)=O)sc1-c1ccnc(C(C)(C)C(F)(F)F)c1	0.871 ± 0.11	0.701 ± 0.1	0.508 ± 0.14	0.365 ± 0.11	0.204 ± 0.099	-0.0344 ± 0.057	1.04 ± 0.017	0.979 ± 0.048	0.722 ± 0.027	0.553 ± 0.12	0.123 ± 0.047	-0.157 ± 0.072	0.971 ± 0.012	0.9151 ± 0.001	0.871 ± 0.026	0.838 ± 0.026	0.762 ± 0.011	0.561 ± 0.051	0.997 ± 0.058	0.986 ± 0.038	0.963 ± 0.048	0.935 ± 0.032	0.89 ± 0.015	0.65 ± 0.09	0.976 ± 0.022	0.94 ± 0.041	0.896 ± 0.061	0.865 ± 0.064	0.77 ± 0.11	0.439 ± 0.14	0.896 ± 0.061	0.811 ± 0.059	0.679 ± 0.051	0.553 ± 0.039	0.323 ± 0.11	-0.0922 ± 0.15
